# Laboratory results published in ChEMBL document CHEMBL1129179, “Antimicrobial evaluation of 3,1-benzoxazin-4-ones, 3,1-benzothiazin-4-ones, 4-alkoxyquinazolin-2-carbonitriles and N-arylimino-1,2,3-dithiazoles” (1996).
# What was measured:
# Assay type in all cases: functional
# Pichia kudriavzevii [1] = assay: Minimum fungicidal concentration required for antifungal activity against Issatchenkia orientalis DSM 6128 strain
# Candida albicans [2] = assay: Minimum fungicidal concentration required for antifungal activity against Candida albicans ATCC 10231 strain
# Pichia kudriavzevii [3] = assay: Minimum inhibitory concentration required for antifungal activity against Issatchenkia orientalis DSM 6128 strain
# Candida tropicalis [4] = assay: Minimum inhibitory concentration required for antifungal activity against Candida tropicalis DSM 1346 strain
# Candida albicans [5] = assay: Minimum inhibitory concentration required for antifungal activity against Candida albicans ATCC 10231 strain
# [6] = Ratio of MFC99/MIC for antifungal activity against Candida tropicalis DSM 1346 strain was determined
# [7] = Ratio of MFC99/MIC for antifungal activity against Issatchenkia orientalis DSM 6128 strain was determined
# Cryptococcus neoformans [8] = assay: Minimum fungicidal concentration required for antifungal activity against Cryptococcus neoformans DSM 70219 strain
# [9] = Ratio of MFC99/MIC for antifungal activity against Cryptococcus neoformans DSM 70219 strain was determined
# Nakaseomyces glabratus [10] = assay: Minimum inhibitory concentration required for antifungal activity against Candida glabrata DSM 6425 strain
# [11] = Ratio of MFC99/MIC for antifungal activity against Candida albicans ATCC 10231 strain was determined
# Cryptococcus neoformans [12] = assay: Minimum inhibitory concentration required for antifungal activity against Cryptococcus neoformans DSM 70219 strain
# Candida tropicalis [13] = assay: Minimum fungicidal concentration required for antifungal activity against Candida tropicalis DSM 1346 strain
# Nakaseomyces glabratus [14] = assay: Minimum fungicidal concentration required for antifungal activity against Candida glabrata DSM 6425 strain
# [15] = Ratio of MFC99/MIC for antifungal activity against Candida glabrata DSM 6425 strain was determined
MIC (Pichia kudriavzevii [3]) [µg/mL],MIC (Candida tropicalis [4]) [µg/mL],MIC (Candida albicans [5]) [µg/mL],MIC (Nakaseomyces glabratus [10]) [µg/mL],MIC (Cryptococcus neoformans [12]) [µg/mL],SMILES,MFC99 (Pichia kudriavzevii [1]) [µg/mL],MFC99 (Candida albicans [2]) [µg/mL],Ratio [6],Ratio [7],MFC99 (Cryptococcus neoformans [8]) [µg/mL],Ratio [9],Ratio [11],MFC99 (Candida tropicalis [13]) [µg/mL],MFC99 (Nakaseomyces glabratus [14]) [µg/mL],Ratio [15]
16,16,16,16,16,COc1ccc(/N=c2\ssnc2Cl)cc1OC,32,16,2,2,32,2,1,32,16,1
16,16,16,16,16,COc1cc(/N=c2\ssnc2Cl)cc(OC)c1OC,32,16,2,2,32,2,1,32,16,1
16,16,16,16,8,COc1ccccc1/N=c1\ssnc1Cl,16,16,1,1,16,2,1,16,16,1

SMILES,MIC (Pichia kudriavzevii [3]) [µg/mL],MIC (Candida tropicalis [4]) [µg/mL],MIC (Candida albicans [5]) [µg/mL],MIC (Nakaseomyces glabratus [10]) [µg/mL],MIC (Cryptococcus neoformans [12]) [µg/mL],MFC99 (Pichia kudriavzevii [1]) [µg/mL],MFC99 (Candida albicans [2]) [µg/mL],Ratio [6],Ratio [7],MFC99 (Cryptococcus neoformans [8]) [µg/mL],Ratio [9],Ratio [11],MFC99 (Candida tropicalis [13]) [µg/mL],MFC99 (Nakaseomyces glabratus [14]) [µg/mL],Ratio [15]
C[C@@H]1[C@H](O)[C@@H](C)/C=C/C=C/C=C/C=C/C=C/C=C/C=C/[C@H](O[C@@H]2O[C@H](C)[C@@H](O)[C@H](N)[C@@H]2O)C[C@@H]2O[C@](O)(C[C@@H](O)C[C@@H](O)[C@H](O)CC[C@@H](O)C[C@@H](O)CC(=O)O[C@H]1C)C[C@H](O)[C@H]2C(=O)O [AMPHOTERICIN B],0.5,1,0.25,1,0.13,1,0.5,2,2,0.5,3.8,2,2,2,2
